Experimental data as given in publication PMC6895180 (Nature Communications, 2019).
Values joined by “and” are separate entries in the source; they are usually repeats but may differ in a detail not shown here. Identical values can stand only once.

Columns and labels:
[1] = test system: T. brucei Squib 427; assay: microbe, parasite or virus in culture; format: cell-based, Trypanosoma brucei brucei
[2] = test system: B48: pentamidine, diminazene and melaminophenyl arsenical resistant T. brucei line; assay: microbe, parasite or virus in culture; format: cell-based, Trypanosoma brucei brucei
[3] = target: P1 transporter; format: cell-based, Trypanosoma brucei; conditions: source data; read-out: P1 transporter Ki, AVG
Procedure: Non-specific association of radiolabel with the cell pellet was determined using an identical incubation in the presence of saturating (1 mM) unlabelled adenosine.

[4] = test system: T. brucei BSF s427 wildtype cells; assay: Growth assays of T. brucei (trypanocidal/trypanostatic effect); format: cell-based, Trypanosoma brucei
Procedure: Growth assays of T. brucei
To test the effect of the novel adenosine analogues on the growth of T. brucei BSF, s427 wildtype cells were seeded at 1×10^5 cells mL-1 in 5 mL of HMI-9 medium with 10% FBS and treated with compounds […]
cells were also incubated in drug-free medium under the same conditions. 2 μM of 2’-deoxycoformycin were added to all cultures to avoid any potential effect of serum adenosine deaminase on the activity of test compounds and cordycepin.1
Cells were manually counted in Neubauer chambers at 0, 2, 4, 6, 8, 12, 24, 36 and 48 h after addition of […]
the drugs. […]
After 6 and 12 h after addition of drugs, approximately 2×10^6 cells were harvested from each group and applied to glass slides pre-treated with poly-L-lysine, left to settle for 5 min and fixed with 4% formaldehyde for 4 min. The formaldehyde was neutralised by addition of 100 mM glycine (20 min).
Cells were washed once with PBS and blocked for 1 h with 1% BSA/0.2% Tween-20 in PBS. Cells were […]

Nc1ncnc2c1c(Br)cn2[C@@H]1O[C@H](CO)[C@@H](O)[C@H]1O [Compound 8, 7-bromotubercidin]
EC50 ([1]; Trypanosoma brucei, Alamar blue cell viability assay, mean and SEM, read-out: T. b. brucei EC50): 1200 ± 300 nM | SI (MRC/T.b. brucei) ([1]; selectivity index): 10 | EC50 ([2]; Trypanosoma brucei, mean and SEM, n = 3, read-out: B48 EC50): 448 ± 196 nM | RF (B48) ([2]; resistance factor vs Lister 427WT): 1.42 | Ki [3]: 7100 nM | AVG of cells/mL ([4]; 2xEC50, 2 h, experiment 1): 142500 cells/mL | Cells/mL ([4]; 2xEC50, 2 h, experiment 1): 127500 Cells/mL and 157500 Cells/mL | Counts ([4]; 2xEC50, 2 h, experiment 1): 51 and 63 | AVG of cells/mL ([4]; 2xEC50, 2 h, experiment 2): 155000 cells/mL | Cells/mL ([4]; 2xEC50, 2 h, experiment 2): 145000 Cells/mL and 165000 Cells/mL | Counts ([4]; 2xEC50, 2 h, experiment 2): 58 and 66 | AVG of cells/mL ([4]; 2xEC50, 4 h, experiment 1): 146250 cells/mL | Cells/mL ([4]; 2xEC50, 4 h, experiment 1): 140000 Cells/mL and 152500 Cells/mL | Counts ([4]; 2xEC50, 4 h, experiment 1): 61 and 56 | AVG of cells/mL ([4]; 2xEC50, 4 h, experiment 2): 162500 cells/mL | Cells/mL ([4]; 2xEC50, 4 h, experiment 2): 140000 Cells/mL and 185000 Cells/mL | Counts ([4]; 2xEC50, 4 h, experiment 2): 74 and 56 | AVG of cells/mL ([4]; 2xEC50, 6 h, experiment 1): 147500 cells/mL | Cells/mL ([4]; 2xEC50, 6 h, experiment 1): 132500 Cells/mL and 162500 Cells/mL | Counts ([4]; 2xEC50, 6 h, experiment 1): 53 and 65 | AVG of cells/mL ([4]; 2xEC50, 6 h, experiment 2): 175000 cells/mL | Cells/mL ([4]; 2xEC50, 6 h, experiment 2): 175000 Cells/mL | Counts ([4]; 2xEC50, 6 h, experiment 2): 70 | AVG of cells/mL ([4]; 2xEC50, 8 h, experiment 1): 175000 cells/mL | Cells/mL ([4]; 2xEC50, 8 h, experiment 1): 185000 Cells/mL and 165000 Cells/mL | Counts ([4]; 2xEC50, 8 h, experiment 1): 74 and 66 | AVG of cells/mL ([4]; 2xEC50, 8 h, experiment 2): 166250 cells/mL | Cells/mL ([4]; 2xEC50, 8 h, experiment 2): 180000 Cells/mL and 152500 Cells/mL | Counts ([4]; 2xEC50, 8 h, experiment 2): 72 and 61 | AVG of cells/mL ([4]; 2xEC50, 12 h, experiment 1): 185000 cells/mL | Cells/mL ([4]; 2xEC50, 12 h, experiment 1): 185000 Cells/mL | Counts ([4]; 2xEC50, 12 h, experiment 1): 74 | AVG of cells/mL ([4]; 2xEC50, 12 h, experiment 2): 181250 cells/mL | Cells/mL ([4]; 2xEC50, 12 h, experiment 2): 190000 Cells/mL and 172500 Cells/mL | Counts ([4]; 2xEC50, 12 h, experiment 2): 76 and 69 | AVG of cells/mL ([4]; 2xEC50, 24 h, experiment 1): 211250 cells/mL | Cells/mL ([4]; 2xEC50, 24 h, experiment 1): 227500 Cells/mL and 195000 Cells/mL | Counts ([4]; 2xEC50, 24 h, experiment 1): 91 and 78 | AVG of cells/mL ([4]; 2xEC50, 24 h, experiment 2): 167500 cells/mL | Cells/mL ([4]; 2xEC50, 24 h, experiment 2): 165000 Cells/mL and 170000 Cells/mL | Counts ([4]; 2xEC50, 24 h, experiment 2): 66 and 68 | AVG of cells/mL ([4]; 2xEC50, 36 h, experiment 1): 350000 cells/mL | Cells/mL ([4]; 2xEC50, 36 h, experiment 1): 322500 Cells/mL and 377500 Cells/mL | Counts ([4]; 2xEC50, 36 h, experiment 1): 129 and 151 | AVG of cells/mL ([4]; 2xEC50, 36 h, experiment 2): 212500 cells/mL | Cells/mL ([4]; 2xEC50, 36 h, experiment 2): 220000 Cells/mL and 205000 Cells/mL | Counts ([4]; 2xEC50, 36 h, experiment 2): 88 and 82 | AVG of cells/mL ([4]; 2xEC50, 48 h, experiment 1): 365000 cells/mL | Cells/mL ([4]; 2xEC50, 48 h, experiment 1): 365000 Cells/mL | Counts ([4]; 2xEC50, 48 h, experiment 1): 146 | AVG of cells/mL ([4]; 2xEC50, 48 h, experiment 2): 152500 cells/mL | Cells/mL ([4]; 2xEC50, 48 h, experiment 2): 142500 Cells/mL and 162500 Cells/mL | Counts ([4]; 2xEC50, 48 h, experiment 2): 57 and 65 | effect on T. brucei bloodstream forms in culture (cidal/static) ([4]; 2× and 5× EC50): trypanostatic | AVG of cells/mL ([4]; 5xEC50, 2 h, experiment 1): 118750 cells/mL | Cells/mL ([4]; 5xEC50, 2 h, experiment 1): 130000 Cells/mL and 107500 Cells/mL | Counts ([4]; 5xEC50, 2 h, experiment 1): 52 and 43 | AVG of cells/mL ([4]; 5xEC50, 2 h, experiment 2): 130000 cells/mL | Cells/mL ([4]; 5xEC50, 2 h, experiment 2): 137500 Cells/mL and 122500 Cells/mL | Counts ([4]; 5xEC50, 2 h, experiment 2): 55 and 49 | AVG of cells/mL ([4]; 5xEC50, 4 h, experiment 1): 138750 cells/mL | Cells/mL ([4]; 5xEC50, 4 h, experiment 1): 132500 Cells/mL and 145000 Cells/mL | Counts ([4]; 5xEC50, 4 h, experiment 1): 58 and 53 | AVG of cells/mL ([4]; 5xEC50, 4 h, experiment 2): 130000 cells/mL | Cells/mL ([4]; 5xEC50, 4 h, experiment 2): 125000 Cells/mL and 135000 Cells/mL | Counts ([4]; 5xEC50, 4 h, experiment 2): 54 and 50 | AVG of cells/mL ([4]; 5xEC50, 6 h, experiment 1): 186250 cells/mL | Cells/mL ([4]; 5xEC50, 6 h, experiment 1): 195000 Cells/mL and 177500 Cells/mL | Counts ([4]; 5xEC50, 6 h, experiment 1): 78 and 71 | AVG of cells/mL ([4]; 5xEC50, 6 h, experiment 2): 162500 cells/mL | Cells/mL ([4]; 5xEC50, 6 h, experiment 2): 155000 Cells/mL and 170000 Cells/mL | Counts ([4]; 5xEC50, 6 h, experiment 2): 62 and 68 | AVG of cells/mL ([4]; 5xEC50, 8 h, experiment 1): 160000 cells/mL | Cells/mL ([4]; 5xEC50, 8 h, experiment 1): 162500 Cells/mL and 157500 Cells/mL | Counts ([4]; 5xEC50, 8 h, experiment 1): 65 and 63 | AVG of cells/mL ([4]; 5xEC50, 8 h, experiment 2): 125000 cells/mL | Cells/mL ([4]; 5xEC50, 8 h, experiment 2): 122500 Cells/mL and 127500 Cells/mL | Counts ([4]; 5xEC50, 8 h, experiment 2): 49 and 51 | AVG of cells/mL ([4]; 5xEC50, 12 h, experiment 1): 176250 cells/mL | Cells/mL ([4]; 5xEC50, 12 h, experiment 1): 190000 Cells/mL and 162500 Cells/mL | Counts ([4]; 5xEC50, 12 h, experiment 1): 76 and 65 | AVG of cells/mL ([4]; 5xEC50, 12 h, experiment 2): 166250 cells/mL | Cells/mL ([4]; 5xEC50, 12 h, experiment 2): 175000 Cells/mL and 157500 Cells/mL | Counts ([4]; 5xEC50, 12 h, experiment 2): 70 and 63 | AVG of cells/mL ([4]; 5xEC50, 24 h, experiment 1): 146250 cells/mL | Cells/mL ([4]; 5xEC50, 24 h, experiment 1): 135000 Cells/mL and 157500 Cells/mL | Counts ([4]; 5xEC50, 24 h, experiment 1): 54 and 63 | AVG of cells/mL ([4]; 5xEC50, 24 h, experiment 2): 126250 cells/mL | Cells/mL ([4]; 5xEC50, 24 h, experiment 2): 115000 Cells/mL and 137500 Cells/mL | Counts ([4]; 5xEC50, 24 h, experiment 2): 46 and 55 | AVG of cells/mL ([4]; 5xEC50, 36 h, experiment 1): 146250 cells/mL | Cells/mL ([4]; 5xEC50, 36 h, experiment 1): 147500 Cells/mL and 145000 Cells/mL | Counts ([4]; 5xEC50, 36 h, experiment 1): 59 and 58 | AVG of cells/mL ([4]; 5xEC50, 36 h, experiment 2): 138750 cells/mL | Cells/mL ([4]; 5xEC50, 36 h, experiment 2): 145000 Cells/mL and 132500 Cells/mL | Counts ([4]; 5xEC50, 36 h, experiment 2): 58 and 53 | AVG of cells/mL ([4]; 5xEC50, 48 h, experiment 1): 112500 cells/mL | Cells/mL ([4]; 5xEC50, 48 h, experiment 1): 112500 Cells/mL | Counts ([4]; 5xEC50, 48 h, experiment 1): 45 | AVG of cells/mL ([4]; 5xEC50, 48 h, experiment 2): 75000 cells/mL | Cells/mL ([4]; 5xEC50, 48 h, experiment 2): 65000 Cells/mL and 85000 Cells/mL | Counts ([4]; 5xEC50, 48 h, experiment 2): 26 and 34
